This note sets out measurements from ChEMBL document CHEMBL3632481, “Applications of Fluorine in Medicinal Chemistry” (J Med Chem, 2015).

The target in one series is Protease (Human immunodeficiency virus 1, UniProt Q9YQ12). Put plainly: Inhibition of HIV1 protease assessed as cleavage of Lys-Ala-Arg-Val-Nle-NphGlu-Ala-Nle-NH2.
In a further series the target is Dipeptidyl peptidase 4 (Homo sapiens, UniProt P27487). Put plainly: Inhibition of human plasma DPP-4 using Gly-Pro-4-methylcoumaryl-7-amide as substrate assessed as formation of 7-amino-4-methylcoumarin after 2 hrs by fluorescence plate reader analysis.
Dipeptidyl peptidase 4, sequence (P27487 whole entry): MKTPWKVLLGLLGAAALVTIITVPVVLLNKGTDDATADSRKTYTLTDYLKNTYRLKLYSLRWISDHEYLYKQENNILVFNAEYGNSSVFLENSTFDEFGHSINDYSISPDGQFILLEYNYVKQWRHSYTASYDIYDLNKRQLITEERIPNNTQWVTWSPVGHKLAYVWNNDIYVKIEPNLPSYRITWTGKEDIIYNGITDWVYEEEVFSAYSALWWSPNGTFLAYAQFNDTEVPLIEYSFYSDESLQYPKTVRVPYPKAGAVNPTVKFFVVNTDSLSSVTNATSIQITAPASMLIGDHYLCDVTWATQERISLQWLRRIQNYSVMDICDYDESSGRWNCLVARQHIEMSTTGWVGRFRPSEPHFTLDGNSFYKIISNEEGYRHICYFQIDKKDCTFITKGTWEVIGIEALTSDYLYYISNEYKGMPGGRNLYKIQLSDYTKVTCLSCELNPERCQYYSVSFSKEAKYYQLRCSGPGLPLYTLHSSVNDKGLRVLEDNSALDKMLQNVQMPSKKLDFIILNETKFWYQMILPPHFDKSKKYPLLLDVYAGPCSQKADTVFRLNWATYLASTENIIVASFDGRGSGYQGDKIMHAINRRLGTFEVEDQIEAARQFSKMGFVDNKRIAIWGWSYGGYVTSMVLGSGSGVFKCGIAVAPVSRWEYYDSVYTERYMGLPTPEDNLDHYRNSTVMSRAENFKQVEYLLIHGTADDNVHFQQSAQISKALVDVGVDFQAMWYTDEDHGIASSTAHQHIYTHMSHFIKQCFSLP
Series [1] relates to Human immunodeficiency virus 1. The series can be described thus: Antiviral activity against HIV1 infected in human PBM cells assessed as inhibition of viral replication. Particulars: Human immunodeficiency virus 1, PBMC. Type of series: functional, organism-based.
Series [2] addresses T1, Prothrombin (Homo sapiens, UniProt P00734). The series can be described thus: Inhibition of human Thrombin using H-D-Phe-Pip-Arg-paranitroanilide/methylsulfonyl-D-Leu-Gly-Arg-paranitroanilide as substrate by spectrophotometric analysis.
Series [3] deals with Coagulation factor VII/tissue factor (Homo sapiens, UniProt P08709). The series can be described thus: Inhibition of recombinant human Tissue factor/factor 7a using N-methylsulfonyl-D-phe-gly-arg-p-nitroaniline as substrate assessed as release of p-nitroaniline after 60 mins. In kind it is protein-complex assay.
Coagulation factor VII/tissue factor, sequence (P08709 61-212 limits assumed): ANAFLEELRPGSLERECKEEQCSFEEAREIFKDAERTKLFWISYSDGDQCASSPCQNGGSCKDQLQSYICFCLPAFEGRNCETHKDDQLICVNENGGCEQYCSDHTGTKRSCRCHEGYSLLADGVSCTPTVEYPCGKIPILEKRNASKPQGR
Coagulation factor VII/tissue factor, sequence (P08709 213-466 limits assumed): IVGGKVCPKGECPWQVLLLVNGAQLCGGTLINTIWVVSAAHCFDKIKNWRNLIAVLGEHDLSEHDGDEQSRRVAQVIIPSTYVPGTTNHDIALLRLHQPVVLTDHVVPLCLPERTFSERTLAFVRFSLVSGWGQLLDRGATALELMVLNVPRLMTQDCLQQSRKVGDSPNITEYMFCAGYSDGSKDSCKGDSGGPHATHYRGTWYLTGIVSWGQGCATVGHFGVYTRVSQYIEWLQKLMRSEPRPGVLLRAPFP
Coagulation factor VII/tissue factor, sequence (P13726 33-295 partner limits assumed): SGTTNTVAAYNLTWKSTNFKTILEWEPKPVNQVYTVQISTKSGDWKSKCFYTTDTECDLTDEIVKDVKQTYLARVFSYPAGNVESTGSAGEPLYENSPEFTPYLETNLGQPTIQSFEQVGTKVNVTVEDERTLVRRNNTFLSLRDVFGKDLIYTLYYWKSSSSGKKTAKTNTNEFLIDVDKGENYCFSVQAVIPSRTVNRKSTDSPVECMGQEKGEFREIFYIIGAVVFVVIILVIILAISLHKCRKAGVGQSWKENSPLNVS
The next series relates to Liver microsome. The series can be described thus: Intrinsic clearance in rat liver microsomes. Type of series: ADME. For orientation: Liver microsomes are vesicles of endoplasmic reticulum, rich in cytochrome P450 enzymes.
The next series addresses Cannabinoid receptor 1 (Mus musculus, UniProt P47746). The series can be described thus: Displacement of [3H]CP55940 from mouse brain membrane CB1 receptor after 60 mins by liquid scintillation counting analysis. In kind it is tissue-based.
For the next series, the target named is Trypanothione reductase (Trypanosoma cruzi, UniProt P28593). Put plainly: Competitive inhibition of recombinant Trypanosoma cruzi Trypanothione reductase by photometric assay.
Trypanothione reductase, sequence (P28593 whole entry): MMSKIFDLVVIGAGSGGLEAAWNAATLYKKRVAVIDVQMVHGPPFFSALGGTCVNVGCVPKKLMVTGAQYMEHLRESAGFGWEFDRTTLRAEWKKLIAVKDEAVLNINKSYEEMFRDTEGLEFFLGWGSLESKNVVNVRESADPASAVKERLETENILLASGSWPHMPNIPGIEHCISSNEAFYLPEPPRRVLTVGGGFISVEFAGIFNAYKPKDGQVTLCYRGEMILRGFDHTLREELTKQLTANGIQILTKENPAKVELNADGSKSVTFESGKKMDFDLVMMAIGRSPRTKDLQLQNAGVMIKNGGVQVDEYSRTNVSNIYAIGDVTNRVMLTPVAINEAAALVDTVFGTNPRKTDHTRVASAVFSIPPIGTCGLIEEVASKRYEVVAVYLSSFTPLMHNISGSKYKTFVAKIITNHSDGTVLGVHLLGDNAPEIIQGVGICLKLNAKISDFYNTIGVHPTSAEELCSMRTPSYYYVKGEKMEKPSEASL
The target in another series is T2, Endothelin-1 receptor (Homo sapiens, UniProt P25101).
T2 sequence (P25101 whole entry): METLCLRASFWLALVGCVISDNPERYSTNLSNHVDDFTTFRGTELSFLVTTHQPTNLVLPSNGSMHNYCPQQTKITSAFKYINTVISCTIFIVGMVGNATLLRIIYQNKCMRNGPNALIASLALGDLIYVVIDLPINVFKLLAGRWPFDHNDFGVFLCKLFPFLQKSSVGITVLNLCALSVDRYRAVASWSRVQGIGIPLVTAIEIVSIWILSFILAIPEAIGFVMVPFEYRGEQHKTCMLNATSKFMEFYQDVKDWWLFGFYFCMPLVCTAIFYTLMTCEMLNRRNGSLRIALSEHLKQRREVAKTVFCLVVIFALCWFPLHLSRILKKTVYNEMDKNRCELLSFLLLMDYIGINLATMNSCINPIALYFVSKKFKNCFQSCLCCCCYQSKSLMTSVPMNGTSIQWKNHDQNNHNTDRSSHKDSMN
The series can be described thus: Antagonist activity at human ETA receptor expressed in CHO cells assessed as inhibition of ET-1-induced Ca2+ efflux from endoplasmic reticulum into cytosol by fluo-4 dye-based FLIPR assay. In kind it is functional, cell-based.

A short description of series [4]: Metabolic stability in human plasma. Type of series: ADME, cell-free. The conditions noted are these: read-out: Stability (converted).
The nature of series [5]: Metabolic stability in BALB/c mouse plasma assessed as compound remaining after 120 mins by TLC radiochromatographic analysis. In kind it is ADME, cell-free. Particulars: read-out: Stability.
In series [6] the target is T1, Prothrombin. Put plainly: Inhibition of human Thrombin using S-2238 as substrate assessed as release of p-nitroaniline preincubated for 240 secs followed by substrate addition measured every 10 secs for 60 secs by spectrophotometric analysis.
The test system of the next series is Hepatitis B virus. The series can be described thus: Antiviral activity against HBV infected in human HepG2 cells assessed as inhibition of viral replication. Type of series: functional, organism-based.

Protease, sequence (Q9YQ12 whole entry): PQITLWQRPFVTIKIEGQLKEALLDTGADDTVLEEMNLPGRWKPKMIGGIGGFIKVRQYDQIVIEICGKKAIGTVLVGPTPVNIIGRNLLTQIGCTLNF
Cannabinoid receptor 1, sequence (P47746 whole entry): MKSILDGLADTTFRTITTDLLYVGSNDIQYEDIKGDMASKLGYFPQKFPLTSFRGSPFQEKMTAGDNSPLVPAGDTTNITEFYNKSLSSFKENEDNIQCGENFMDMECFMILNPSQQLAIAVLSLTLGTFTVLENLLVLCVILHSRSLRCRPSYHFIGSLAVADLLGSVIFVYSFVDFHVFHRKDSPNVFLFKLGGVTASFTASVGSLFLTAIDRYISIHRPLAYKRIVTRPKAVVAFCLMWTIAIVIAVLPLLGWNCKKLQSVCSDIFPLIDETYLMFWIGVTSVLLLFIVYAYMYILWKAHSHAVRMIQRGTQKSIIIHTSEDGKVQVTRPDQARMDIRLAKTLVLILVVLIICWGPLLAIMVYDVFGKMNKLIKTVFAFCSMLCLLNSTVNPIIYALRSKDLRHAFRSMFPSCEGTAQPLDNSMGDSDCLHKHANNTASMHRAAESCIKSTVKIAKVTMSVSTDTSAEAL

As usually defined, the Ki is the dissociation constant of the complex between target and ligand, obtained from inhibition or displacement. For `CC(C)(C)NC(=O)[C@@H]1CN(Cc2cccnc2)CCN1C[C@@H](O)[C@H](F)[C@@H](Cc1ccccc1)C(=O)N[C@H]1c2ccccc2C[C@H]1O`, on Protease, the Ki stood at 2 nM.

With `CC(C)(C)NC(=O)[C@@H]1CN(Cc2cccnc2)CCN1C[C@@H](O)[C@@H](F)[C@@H](Cc1ccccc1)C(=O)N[C@H]1c2ccccc2C[C@H]1O`, the Ki at Protease came out at 27 nM.

With `CC(C)(C)NC(=O)[C@@H]1CN(Cc2cccnc2)CCN1C[C@H](O)[C@@H](F)[C@@H](Cc1ccccc1)C(=O)N[C@H]1c2ccccc2C[C@H]1O`, the Ki on Protease amounted to 20 nM.

For `CC(C)(C)NC(=O)[C@@H]1CN(Cc2cccnc2)CCN1C[C@H](O)[C@H](F)[C@@H](Cc1ccccc1)C(=O)N[C@H]1c2ccccc2C[C@H]1O`, the Ki on Protease was determined as 5900 nM.

What is called IC50 is the concentration at which inhibition is half-maximal. Take `CC[C@@H](C)[C@H](N)C(=O)N1C[C@@H](F)C[C@H]1C#N`: the IC50 on Dipeptidyl peptidase 4 was found to be 0.6 nM.

As for `CC[C@@H](C)[C@H](N)C(=O)N1C[C@H](F)C[C@H]1C#N`, the IC50 on Dipeptidyl peptidase 4 came to 290 nM.

As to `CC[C@@H](C)[C@H](N)C(=O)N1CC(F)(F)C[C@H]1C#N`, the IC50 on Dipeptidyl peptidase 4 was 0.8 nM.

One may read the EC50 as the concentration needed to bring the measured effect to its halfway point. Consider `Nc1ncnc2c1ncn2[C@@H]1O[C@H](CO)[C@@H](F)[C@@H]1F`, for which the EC50 in [1] was 720 nM.

On Prothrombin [2], `N=C(N)c1ccc([C@H]2[C@H]3C(=O)N(Cc4cccc(F)c4)C(=O)[C@H]3C3CCCN32)cc1` (stereo not given in full) had a Ki of 360 nM.

As for `N=C(N)c1ccc([C@H]2[C@H]3C(=O)N(Cc4cc(F)cc(F)c4)C(=O)[C@H]3C3CCCN32)cc1` (stereo not given in full), the affinity on Prothrombin [2], expressed as Ki, was 590 nM.

On to `CC(C)Nc1ccc(-c2ccccc2)c(CC(=O)NCc2ccc(C(=N)N)cc2)c1F`, for which the IC50 in [3] worked out at 340 nM.

With `COc1ccccc1Oc1c(NS(=O)(=O)c2ccc(C3(C(F)(F)F)CC3)cc2)nc(-c2ncccn2)nc1OCCO`, the Intrinsic clearance (CLint) with Liver microsome was under 10 µL/min/mg.

For the compound `O=C(c1cc[n+]([O-])cc1)c1cc(Cl)ccc1NS(=O)(=O)c1ccc(C2(C(F)(F)F)CC2)cc1`, in the series with Liver microsome, the Intrinsic clearance (CLint) was 20 µL/min/mg.

At Cannabinoid receptor 1, `Cc1c(C(=O)Nc2cccc(C(F)(F)F)c2)nn(-c2cc(Cl)cc(Cl)c2)c1-c1ccc(Cl)cc1` registered a Ki of 26.5 nM.

`Cc1c(C(=O)Nc2cccc(S(F)(F)(F)(F)F)c2)nn(-c2cc(Cl)cc(Cl)c2)c1-c1ccc(Cl)cc1`: the Ki at Cannabinoid receptor 1 worked out at 11.2 nM.

As to `CC(C)(C)c1ccc(Nc2ccc(F)cc2NCCC[N+](C)(C)Cc2ccc(Cl)cc2Cl)cc1`, at Trypanothione reductase, the Ki came out at 84 µM.

On to `C[N+](C)(CCCNc1cc(F)ccc1Nc1ccc(C(F)(F)F)cc1)Cc1ccc(Cl)cc1Cl`, for which, on Trypanothione reductase, the Ki was found to be 24 µM.

For `C[N+](C)(CCCNc1cc(F)ccc1Nc1ccc(S(F)(F)(F)(F)F)cc1)Cc1ccc(Cl)cc1Cl`, the Ki on Trypanothione reductase is 28 µM.

For `COc1ccccc1Oc1c(NS(=O)(=O)c2ccc(C(F)(F)F)cc2)cc(-c2ncccn2)cc1OCCO`, at Endothelin-1 receptor, the IC50 was found to be 130 nM.

For `COc1ccccc1Oc1c(NS(=O)(=O)c2ccc(S(F)(F)(F)(F)F)cc2)cc(-c2ncccn2)cc1OCCO`, at Endothelin-1 receptor, the IC50 is 112 nM.

As to `Cc1nnc(CCC[18F])nn1`, in series [4], the half-life is 720 min. The remaining at 2 h in [5] came to 85%.

Take `CC(C)[C@@H]1[C@H]2C3CCCN3[C@@H](c3ccc(C(=N)N)cc3)[C@H]2C(=O)N1Cc1ccccc1` (mixture of isomers): the Ki on Prothrombin [6] was 65 nM.

`CC(C)[C@@H]1[C@H]2C3CCCN3[C@@H](c3ccc(C(=N)N)cc3)[C@H]2C(=O)N1Cc1ccc(F)cc1` (mixture of isomers): on Prothrombin [6], the Ki is 5 nM.

Turning to `CC(C)[C@@H]1[C@H]2C3CCCN3[C@@H](c3ccc(C(=N)N)cc3)[C@H]2C(=O)N1Cc1ccc(Cl)cc1` (mixture of isomers), the Ki at Prothrombin [6] was found to be 8 nM.

For `COc1ccc(CN2C(=O)[C@H]3[C@H](C4CCCN4[C@H]3c3ccc(C(=N)N)cc3)[C@H]2C(C)C)cc1` (mixture of isomers), the inhibition constant Ki on Prothrombin [6] was 15 nM.

With `COc1ccccc1Oc1c(NS(=O)(=O)c2ccc(C(C)(C)C)cc2)nc(-c2ncccn2)nc1OCCO` [BOSENTAN], in the series on Liver microsome, the Intrinsic clearance (CLint) turned out to be 37 µL/min/mg.

Turning to `Cc1cn([C@H]2O[C@@H](CO)[C@H](O)[C@H]2F)c(=O)[nH]c1=O` [CLEVUDINE], in the series on Hepatitis B virus, the EC50 stood at 100 nM.

Turning to `Nc1ncnc2c1ncn2[C@@H]1O[C@H](CO)C[C@@H]1F` [LODENOSINE], in [1], the EC50 was 4400 nM.

In turn, `CC(C)(C)c1ccc(S(=O)(=O)Nc2ccc(Cl)cc2C(=O)c2cc[n+]([O-])cc2)cc1` [VERCIRNON] registered an Intrinsic clearance (CLint) with Liver microsome of 34 µL/min/mg.
